Source: patent US20130296344A1, “CHROMENE DERIVATIVES AND THEIR ANALOGA AS WNT PATHWAY ANTAGONISTS” (Ruprecht-Karls-Universitat Heidelberg, priority 2010, published 2013)
Like-named read-outs stand apart in the source and are kept apart here.

Legend:
[1] = tested on: Wnt pathway (Wnt1/Frzd8); assay: Wnt signaling pathway reporter gene assay (6xTCF-luciferase, Wnt1/Frizzled 8/LRP6 stimulated Hek293T cells); type: cell-based, mouse (Wnt1, human (LRP6)
Description: To screen for small-molecule modulators of the Wnt signaling pathway, a reporter gene based assay describing the modulation of the TCF4 transcription factor was used. […]

[2] = Cytotoxicity in Hek293T (CellTiterGlo); type: cell-based; conditions: human, Hek293T cells, 24 h after compound addition, 5 nM-100 microM, read-out: Hek293T IC50 (cytotoxic activity)
Protocol: (§1) For examination of cytotoxicity in these cancer cell lines the commercial available CellTiterGlo® Reagent (Promega, USA) was used according to the manufactor. Compounds were applied to Hek293T (denoted (a)) or HepG2 (denoted (b)), cultured in Dulbecco's Modified Eagles Medium, supplemented with 10% fetal calf serum and 1% penicillin/streptomycin. Cells were grown in T75 flasks at 37° C., 5% CO2 and trypsinized when 60-80% confluent by adding 2 ml of 0.25% Trypsin-EDTA solution. Cells were then re-suspended into culture medium yielding approx. 4000 cells (a) or 4500 cells (b), suspended in 30 microl medium. 48 h after cell seeding, compounds were added to yield the desired final concentrations. 24 h after compound addition cytotoxicity was evaluated. For this purpose the media was removed and CellTiterGlo® was added according to the manufactors manual. In this assay the luciferase emission readout is directly correlated with the cellular amount of ATP, low luciferase emission thus is reflecting cytotoxicity of a compound.

[3] = Cytotoxicity in HepG2 (CellTiterGlo); type: cell-based; conditions: human, HepG2 cells, 24 h after compound addition, 5 nM-100 microM, read-out: HepG2 IC50 (cytotoxic activity)
Protocol: as §1

[4] = tested on: human fibroblasts (HS-68); assay: Cell line specific cytotoxicity, normal cells HS68 (nuclei count); type: cell-based; conditions: at least 72 hr incubation, Hoechst nuclei count, read-out: HS68 IC50 (influence on normal cells)
Protocol: (§2) For examination of cell line-specific cytotoxicity, compounds were applied to human colorectal cancer cells (HCT116, denoted (1); SW480, denoted (2); Dld-1, denoted (3)) and human fibroblasts (HS-68, denoted (4)), cultured in Mc Coy's ((1)) and Dulbecco's Modified Eagles Medium ((2)-(4)), supplemented with 10% ((1)-(3)) and 20% ((4)) fetal calf serum and 1% penicillin/streptomycin. Cells were grown in T75 flasks at 37° C., 5% CO2 and trypsinized when 60-80% confluent by adding 2 ml of 0.25% Trypsin-EDTA (ethylenediaminetetraacetic acid) solution. Cells were then re-suspended into culture medium yielding approx. 750 cells, suspended in 45 microl medium, were plated into each well of a black 384-well plate for fluorescence imaging experiments. 24-36 hr later 5 microl compound solution (100 microM compound dissolved in ultra pure water containing 1% DMSO (dimethylsulfoxide)), were added to achieve a final concentration of 10 microM and were incubated for at least 72 hr. Compound incubation was terminated by (a) fixation and (b) permeabilisation of cells, followed by (c) fluorescence labeling of cell nuclei for cytometric quantification or by immunocytochemistry for microscopic evaluation of cell morphology. […] Solutions were incubated for 15 (a,b) and 30 min (c) in the dark at room temperature. Cells were washed twice between each step with 30 microl PBS. The assay system was miniaturized and adapted to automated workflow using liquid-handling robotics.
(§3) Cell line-specific cytotoxicity was quantified by counting the number of Hoechst labeled nuclei per well of a 384-well plate using a plate cytometer. Data obtained with the cytometer was analysed using standard data analysis software.
Identified hits were further evaluated by visual inspection of fluorescence micrographs obtained from imaging using a conventional fluorescence microscope.

[5] = tested on: Dld1 colon carcinoma cells; assay: Antiproliferative activity against Dld1 colon carcinoma cells (nuclei count); type: cell-based, human
Protocol: as §2, §3
(§4) The examination of the antiproliferative activity against human colon carcinoma cells Dld1, HCT116 and SW480 was carried out in analogy to the procedure carried out for HS68. The respective compound applied in increasing concentrations yielding final concentrations per well of 5 nM-90 microM.

[6] = tested on: HCT116 colon carcinoma cells; assay: Antiproliferative activity against HCT116 colon carcinoma cells (nuclei count); type: cell-based, human
Protocol: as §2, §3, §4

[7] = tested on: SW480 colon carcinoma cells; assay: Antiproliferative activity against SW480 colon carcinoma cells (nuclei count); type: cell-based; conditions: Homo sapiens, 5 nM-90 microM
Protocol: as §2, §3, §4

[8] = Homo sapiens, HEK-293T, Hek293T, 6xTCF-luciferase reporter, 24 h incubation, 5 nM-100 microM, read-out: Wnt1/Frzd8 IC50 (Wnt pathway inhibitory activity)
[9] = Homo sapiens, DLD-1, colon carcinoma cells, 5 nM-90 microM, nuclei count, read-out: Dld1 IC50
[10] = Homo sapiens, HCT-116, colon carcinoma cells, 5 nM-90 microM, nuclei count, read-out: HCT116 IC50
[11] = Homo sapiens, HEK-293T, 24 h, Hek293T, 6xTCF-luciferase reporter, 24 h incubation, 5 nM-100 microM, read-out: Wnt1/Frzd8 IC50 (Wnt pathway inhibitory activity)
[12] = Table 7, racemate vs enantiomers, procedure of example 54, read-out: IC50 against Wnt-Pathway
[13] = Table 7, racemate vs enantiomers, procedure of example 56, read-out: IC50 against colon cancer cell lines DLDl
[14] = Table 7, racemate vs enantiomers, procedure of example 56, read-out: IC50 against colon cancer cell lines HCT 116

| Structure (SMILES) | IC50 [1, 8] [µM] | IC50 at 24 h [2] [µM] | IC50 at 24 h [3] [µM] | IC50 [4] [µM] | IC50 [5, 9] [µM] | IC50 [6, 10] [µM] | IC50 [7] [µM] | IC50 [1, 11] [µM] | IC50 ([1]; Homo sapiens, HEK-293T, Table 7, racemate vs enantiomers, procedure of example 54, read-out: IC50 against Wnt-Pathway) [µM] | IC50 ([5]; Homo sapiens, DLD-1, Table 7, racemate vs enantiomers, procedure of example 56, read-out: IC50 against colon cancer cell lines DLDl) [µM] | IC50 ([6]; Homo sapiens, HCT-116, Table 7, racemate vs enantiomers, procedure of example 56, read-out: IC50 against colon cancer cell lines HCT 116) [µM] | IC50 [1, 12] [µM] | IC50 [5, 13] [µM] | IC50 [6, 14] [µM] |
| --- | --- | --- | --- | --- | --- | --- | --- | --- | --- | --- | --- | --- | --- | --- |
| N#CC1=C(N)Oc2cc3ccccc3cc2C1c1cc(F)c(N2CCCCC2)c(F)c1 (stereo not drawn) [(29), 2-amino-4-(3,5-difluoro-4-piperidin-1-yl-phenyl)-4H-benzo[g]chromene-3-carbonitrile] | 6.48 | > 90 | 42.5 | > 90 | > 90 | > 90 | 38.5 | – | – | – | – | – | – | – |
| COc1cc(C2C(C#N)=C(N(C)C)Oc3cc4ccccc4cc32)cc(Br)c1OC (stereo not drawn) [(31), 2-Dimethylamino-4-(3-bromo-4,5-dimethoxy-phenyl)-4H-benzo[g]chromene-3-carbonitrile] | – | > 90 | > 90 | > 90 | 4.56 | 10 | 12 | 1.97 | – | – | – | – | – | – |
| N#CC1=C(N)Oc2cc3c(cc2C1c1cc(F)c(F)c(F)c1)OCO3 (stereo not drawn) [(39), 6-Amino-8-(3,4,5-trifluoro-phenyl)-8H-[1,3]dioxolo[4,5-g]chromene-7-carbonitrile] | 1.36 | > 90 | > 90 | – | 1.08 | 0.666 | 2.69 | – | – | – | – | – | – | – |
| COc1cc(C2C(C#N)=C(N)Oc3c2ccc2ncccc32)cc(Br)c1OC (stereo not drawn) [(18), 6-Amino-8-(3-bromo-4,5-dimethoxy-phenyl)-8H-5-oxa-1-aza-phenanthrene-7-carbonitrile] | 0.033 | > 90 | > 90 | 2.77 | 0.185 | 0.331 | 19.7 | – | – | – | – | – | – | – |
| COc1cc(C2C(C#N)=C(N)Oc3c2c(O)nc2ccccc32)cc(Br)c1OC (stereo not drawn) [(17), 2-Amino-4-(3-bromo-4,5-dimethoxy-phenyl)-5-hydroxy-4H-pyrano[3,2-c]quinoline-3-carbonitrile] | 0.02 | > 90 | > 90 | – | 0.643 | 0.305 | 0.577 | – | – | – | – | – | – | – |
| C=CCOc1c(Br)cc(C2C(C(=O)OCC)=C(N)Oc3cc4c(cc32)OCO4)cc1OC (stereo not drawn) [(42), 8-(4-Allyloxy-3-bromo-5-methoxy-phenyl)-6-amino-8H-[1,3]dioxolo[4,5-g]chromene-7-carboxylic acid ethyl ester] | – | > 90 | > 90 | 0.469 | 0.293 | 0.25 | 0.343 | 0.055 | – | – | – | – | – | – |
| COc1cc(C2C(C#N)=C(N)Oc3cc4ccccc4cc32)cc(Br)c1OC (stereo not drawn) [(30), 2-Amino-4-(3-bromo-4,5-dimethoxy-phenyl)-4H-benzo[g]chromene-3-carbonitrile] | 0.697 | > 90 | > 90 | 5.15 | 8.97 | 2.9 | 7.6 | – | – | – | – | – | – | – |
| COc1cc(C2C(C#N)=C(N)Oc3c2ccc2ccccc32)cc(Br)c1OC (stereo not drawn) [(1), 2-Amino-4-(3-bromo-4,5-dimethoxy-phenyl)-4H-benzo[h]chromene-3-carbonitrile] | 0.046 | > 90 | > 90 | 0.087 | 0.038 | 0.049 | 0.056 | – | – | – | – | – | – | – |
| COc1cc(C2C(C#N)=C(N)Oc3c2ccc2ccc(N)nc32)cc(Br)c1OC (racemic) [(20), 3,6-Diamino-1-(3-bromo-4,5-dimethoxy-phenyl)-1H-4-oxa-5-aza-phenanthrene-2-carbonitrile] | 0.006 | > 90 | 37 | – | 0.014 | 0.015 | – | – | 0.005 | 0.01 | 0.005 | – | – | – |
| CCOC(=O)C1=C(N)Oc2c(ccc3ccccc23)C1c1cc(Br)c(OC)c(OC)c1 (stereo not drawn) [(6), 2-Amino-4-(3-bromo-4,5-dimethoxy-phenyl)-4H-benzo[h]chromene-3-carboxylic acid ethyl ester] | – | > 90 | > 90 | > 90 | 3.82 | 8.6 | 5.96 | 0.855 | – | – | – | – | – | – |
| N#CC1=C(N)Oc2c(ccc3ccccc23)C1c1cc(F)c(F)c(F)c1 (stereo not drawn) [(7), 2-Amino-4-(3,4,5-trifluoro-phenyl)-4H-benzo[h]chromene-3-carbonitrile] | 0.316 | > 90 | > 90 | > 90 | 0.474 | 0.922 | 2.86 | – | – | – | – | – | – | – |
| COc1cc(C2C(C#N)=C(N)Oc3c2ccc2ccc(C)nc32)cc(Br)c1OC (stereo not drawn) [(16), 3-Amino-1-(3-bromo-4,5-dimethoxy-phenyl)-6-methyl-1H-4-oxa-5-aza-phenanthrene-2-carbonitrile] | 1.13 | > 90 | > 90 | 4.95 | 2.9 | 3.34 | 3.16 | – | – | – | – | – | – | – |
| N#CC1=C(N)Oc2cc3ccccc3cc2C1c1cc(F)c(F)c(F)c1 (stereo not drawn) [(28), 2-amino-4-(3,4,5-trifluoro-phenyl)-4H-benzo[g]chromene-3-carbonitrile] | 2.4 | > 90 | 31.7 | > 90 | 22 | 30.3 | 53.6 | – | – | – | – | – | – | – |
| CCOC(=O)C1=C(N)Oc2cc3c(cc2C1c1cc(F)c(F)c(F)c1)OCO3 (stereo not drawn) [(40), 6-Amino-8-(3,4,5-trifluoro-phenyl)-8H-[1,3]dioxolo[4,5-g]chromene-7-carboxylic acid ethyl ester] | – | > 90 | > 90 | > 90 | 15.7 | > 90 | 6.38 | 3.42 | – | – | – | – | – | – |
| COc1cc(C2C(C#N)=C(N)Oc3c2ccc2ccc(N)nc32)cc(Br)c1OC (single isomer, unassigned) [(20)-1, 3,6-Diamino-1-(3-bromo-4,5-dimethoxy-phenyl)-1H-4-oxa-5-aza-phenanthrene-2-carbonitrile] | – | – | – | – | – | – | – | – | – | – | – | < 0.005 | < 0.005 | < 0.005 |
| COc1cc(C2C(C#N)=C(N)Oc3c2ccc2ccc(N)nc32)cc(Br)c1OC (single isomer, unassigned) [(20)-2, 3,6-Diamino-1-(3-bromo-4,5-dimethoxy-phenyl)-1H-4-oxa-5-aza-phenanthrene-2-carbonitrile] | – | – | – | – | – | – | – | – | – | – | – | 0.33 | 0.356 | 0.354 |
| COc1cc(C2C(C#N)=C(N)Oc3c2ccc2ccc(O)nc32)cc(Br)c1OC (stereo not drawn) [(19), 3-Amino-1-(3-bromo-4,5-dimethoxy-phenyl)-6-hydroxy-1H-4-oxa-5-aza-phenanthrene-2-carbonitrile] | 0.003 | > 90 | > 90 | – | 0.021 | 0.017 | – | – | – | – | – | – | – | – |
